Entries after “also recorded” stand apart in the source; their conditions may differ. Where only a bound is given, the exact number is not on record here.

The results in this text go back to patent EP2241565A1, “Aurora kinase inhibitors compounds” (Universität Leipzig, priority 2009, dated 2010).

One series has as its target T1, Flt-4 (VEGFR3) (Homo sapiens, UniProt P35916).
T1 construct: GST (N); purchased Biomol
Nature of the series: RTK-Assay (ELISA, chemiluminescence). In kind it is biochemical. The following applies: read-out: IC50 Flt-4 (VEGFR 3). On the procedure: (§1) To determine the IC50 of receptor-tyrosine-kinase an assay based on the ELISA-principle using kinases from Biomol (N-terminally fused to GST), POD-coupled antibody from Calbiochem (PY20) and BM chemiluminescence ELISA substrate from Roche was followed.
(§2) In short, a white 96 wells microplate was incubated overnight with 100 µl/well of the substrate solution (poly-Glu-Tyr diluted with PBS to 100 µg/ml) at 4 °C. The solution was removed and the plate was washed twice for 2 min with PBS-T. Afterwards the kinase solution (50 µl/well)( KDR (VEGFR2), 5 ng; Flt4 (VEGFR3), 20 ng; EGFR, 5 ng; IGFR, 15 ng; FGFR, 10 ng and Tie2, 20 ng) and the inhibitor solution (25 µl/well) were added to each well. To perform positive and negative control, 5% aqueous DMSO (25 µl/well) were used instead of inhibitor solution. Addition of ATP solution (25 µl/well) started the reaction, whereas 40 mM MnCl2 solution (25 µl/well) was added to the negative control instead of ATP. After incubation under mild shaking conditions for 30 min at rt the plate was washed with PBS-T (3 x 2 min) and subsequently incubated with antibody solution (anti-Phosphotyrosine-antibody (POD-coupled) diluted 1:10.000 in PBS-T + 0,2% (m/v) BSA)(100 µl/well) for 1 h again while shaking. In the end the plate was washed with PBS-T (3x5 min) and provided with the chemiluminescence substrate (50 µl/well). After 3 min the occurring luminescence was measured using a luminometer. A positive control was measured without inhibitor to determine the activity of the kinase, a negative control without inhibitor and ATP to abstract the background signal from the results. For determination of IC50 values, the relative luminescence units per second (RLU/s) were blotted against the inhibitor concentrations. In doing so each concentration measurement was done triplicate and at least 5 different inhibitor concentrations were used to determine IC50 value.
(§3) This assay is based on the ELISA-principle using kinases from Biomol (N-terminally fused to GST), POD-coupled antibody from Calbiochem (PY20) and BM chemiluminescence ELISA substrate from Roche.
(§4) Each well of a 96 well microplate (white, flat bottom, Greiner, Lumitrac600) was covered with a kinase polypeptide substrate containing glutamate and tyrosine. The substrate was incubated with a kinase, a defined inhibitor concentration and ATP. After kinase inhibitor depending phosphorylation of the substrate a POD-coupled antibody was added that selectively binds to phosphorylated tyrosine. Finally, a chemiluminescence reagent was added and light emission measured using an Orion Microplate Luminometer (Berthold).
(§5) The detected counts correlate directly with the amount of phosphorylated tyrosine and indirectly with the activity of the inhibitor.
(§6) A positive control was measured without inhibitor to determine the activity of the kinase, a negative control without inhibitor and ATP to abstract the background signal from the results. For determination of IC50 values, the relative luminescence units per second (RLU/s) were blotted against the inhibitor concentrations. In doing so each concentration measurement was done triplicate and at least 5 different inhibitor concentrations were used to determine IC50 value.
(§7) The following solutions were prepared for the receptor-tyrosine-kinase assay: - PBS (10x) 1 g KCl, 1 g KH2PO4, 40 g NaCl, 13.2 g Na2HPO4, ad 1 l H2O - PBST (1x) PBS 10x + 0,5% Tween20 → diluted 1:10 - substrate poly-Glu-Tyr 4:1 (10mg/ml in PBS) → diluted with PBS to 100µg/ml - kinase buffer 100mM HEPES, 100mM NaCl, 0.1mM Na3VO4 - kinase solution kinase buffer, kinase stock solution diluted to reach the following concentration defined in the table Table "kinase dilution" […]
On the technique in general: ELISA stands for enzyme-linked immunosorbent assay.

The target in a further series is T2, IGFR (Homo sapiens, UniProt P08069).
T2 construct: GST (N); purchased Biomol
T2 sequence (P08069 31-1367): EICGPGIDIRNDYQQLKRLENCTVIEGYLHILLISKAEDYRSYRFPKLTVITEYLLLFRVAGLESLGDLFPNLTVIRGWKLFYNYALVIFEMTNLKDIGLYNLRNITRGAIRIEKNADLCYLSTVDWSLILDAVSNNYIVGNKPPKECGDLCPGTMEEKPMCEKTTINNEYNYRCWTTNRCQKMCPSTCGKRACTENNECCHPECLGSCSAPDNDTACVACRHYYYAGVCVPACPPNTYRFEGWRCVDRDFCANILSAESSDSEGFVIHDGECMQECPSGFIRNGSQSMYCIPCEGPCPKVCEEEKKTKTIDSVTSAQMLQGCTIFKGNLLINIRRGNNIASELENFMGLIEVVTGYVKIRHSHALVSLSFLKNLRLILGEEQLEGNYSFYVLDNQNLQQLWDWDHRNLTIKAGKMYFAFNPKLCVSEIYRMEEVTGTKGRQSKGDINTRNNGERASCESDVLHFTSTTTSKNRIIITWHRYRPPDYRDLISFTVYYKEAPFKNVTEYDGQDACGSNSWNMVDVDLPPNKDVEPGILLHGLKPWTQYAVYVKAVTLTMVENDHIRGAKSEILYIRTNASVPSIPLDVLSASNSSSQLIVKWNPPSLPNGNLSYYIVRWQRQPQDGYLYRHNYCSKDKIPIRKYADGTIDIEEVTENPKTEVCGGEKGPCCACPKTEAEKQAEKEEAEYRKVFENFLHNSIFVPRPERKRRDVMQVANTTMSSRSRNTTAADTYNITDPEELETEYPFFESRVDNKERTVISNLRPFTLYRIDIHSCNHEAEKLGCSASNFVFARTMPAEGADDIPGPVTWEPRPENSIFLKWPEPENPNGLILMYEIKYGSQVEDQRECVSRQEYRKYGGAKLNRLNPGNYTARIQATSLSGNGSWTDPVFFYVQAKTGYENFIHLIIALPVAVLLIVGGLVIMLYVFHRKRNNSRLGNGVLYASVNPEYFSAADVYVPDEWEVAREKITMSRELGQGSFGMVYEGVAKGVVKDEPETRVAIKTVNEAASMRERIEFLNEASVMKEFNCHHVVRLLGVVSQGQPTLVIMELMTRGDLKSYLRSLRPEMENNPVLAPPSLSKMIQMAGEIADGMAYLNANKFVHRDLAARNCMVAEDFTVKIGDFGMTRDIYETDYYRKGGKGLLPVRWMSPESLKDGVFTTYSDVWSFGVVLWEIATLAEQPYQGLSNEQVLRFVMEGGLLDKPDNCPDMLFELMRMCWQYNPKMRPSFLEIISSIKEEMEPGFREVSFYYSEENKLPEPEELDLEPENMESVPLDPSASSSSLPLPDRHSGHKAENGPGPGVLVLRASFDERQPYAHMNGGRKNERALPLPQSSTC
Nature of the series: RTK-Assay (ELISA, chemiluminescence). It is filed as biochemical. The protocol: as §1, §2, §3, §4, §5, §6, §7

A further series deals with T3, Tie2 (Homo sapiens, UniProt Q02763).
T3 construct: GST (N); purchased Biomol
T3 sequence (Q02763 23-1124, species assumed): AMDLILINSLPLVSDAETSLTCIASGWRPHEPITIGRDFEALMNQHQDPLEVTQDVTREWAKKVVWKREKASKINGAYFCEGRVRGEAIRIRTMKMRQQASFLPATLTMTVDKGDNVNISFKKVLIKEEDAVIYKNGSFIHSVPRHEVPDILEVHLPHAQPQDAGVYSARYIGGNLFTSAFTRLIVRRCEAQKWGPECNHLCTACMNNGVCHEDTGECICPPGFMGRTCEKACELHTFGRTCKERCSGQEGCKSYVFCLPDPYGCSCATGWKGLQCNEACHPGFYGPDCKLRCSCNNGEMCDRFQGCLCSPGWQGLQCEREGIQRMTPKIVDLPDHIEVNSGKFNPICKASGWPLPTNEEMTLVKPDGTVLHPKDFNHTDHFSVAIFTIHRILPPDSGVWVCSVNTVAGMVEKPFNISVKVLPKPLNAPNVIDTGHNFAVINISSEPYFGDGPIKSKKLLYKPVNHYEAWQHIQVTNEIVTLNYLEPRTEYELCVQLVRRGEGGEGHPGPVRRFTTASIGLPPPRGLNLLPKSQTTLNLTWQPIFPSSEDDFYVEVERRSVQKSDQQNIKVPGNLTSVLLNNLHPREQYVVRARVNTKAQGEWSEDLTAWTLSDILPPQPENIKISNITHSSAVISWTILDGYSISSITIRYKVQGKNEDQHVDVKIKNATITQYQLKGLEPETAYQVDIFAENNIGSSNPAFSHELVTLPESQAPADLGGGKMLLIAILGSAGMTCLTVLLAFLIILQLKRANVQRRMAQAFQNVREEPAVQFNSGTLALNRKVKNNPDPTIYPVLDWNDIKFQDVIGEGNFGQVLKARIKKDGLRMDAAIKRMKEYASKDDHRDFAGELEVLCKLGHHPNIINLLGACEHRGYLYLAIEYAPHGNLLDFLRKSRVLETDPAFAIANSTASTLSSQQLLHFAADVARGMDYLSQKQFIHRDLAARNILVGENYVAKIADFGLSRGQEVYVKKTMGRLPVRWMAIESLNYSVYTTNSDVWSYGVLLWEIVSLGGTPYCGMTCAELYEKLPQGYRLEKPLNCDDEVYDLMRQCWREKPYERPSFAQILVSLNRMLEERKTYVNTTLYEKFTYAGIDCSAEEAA
Nature of the series: RTK-Assay (ELISA, chemiluminescence). It is filed as biochemical. The note with it: read-out: IC50 Tie-2. The protocol:
as §1, §2, §3, §4, §5, §6, §7

A further series addresses T4, EGFR (Homo sapiens, UniProt P00533).
T4 construct: GST (N); purchased Biomol
Nature of the series: RTK-Assay (ELISA, chemiluminescence). In kind it is biochemical. On the procedure:
as §1, §2, §3, §4, §5, §6, §7

Series [1] concerns H2B-GFP/mRFP-αTubulin HeLa cells. Nature of the series: Time-lapse video microscopy of live cells. In kind it is cell-based, human. The note with it: 40 µM. The protocol:
Upon treatment, living cells were added to a humidified chamber at 37 °C with 5% CO2 attached to a Carl Zeiss microscope (SN:3834000366) equipped with a Hamamatsu EM-CCD digital camera, controlled by AxioVision 4.6 software. Cells were imaged every 3 or 4.5 min (depending on the number of fields filmed) for over 16 h-24 h. Images were taken with the AxioCam MRm 426205 objective and processed using AxioVision software.
The increase in the proportion of cells with more than 2n DNA content could be due to several causes: several cycles of DNA replication or cytokinesis errors as shown for cells treated with other Aurora inhibitors. To determine the primary cause for the phenotype produced by (C) and examine whether (A) may interfere with mitosis, we examined live cells by time-lapse video microscopy. To visualize DNA and microtubules we used a HeLa stable cell line expressing H2B-GFP and mRFP-αTubulin. […] The resulting time-lapse images were used to determine the following parameters: (1) the percentage of cell death among non dividing cells (Figure 4A), (2) the percentage of cells entering mitosis (Figure 4B), (3) the outcome of mitosis: normal division (cell division), return to interphase without chromatin segregation and without dividing (no division), cytokinesis failure (division errors), cell death without resolving mitosis (cell death) (Figure 4C), and (4) the length of time spent in mitosis (TIM), defined as the interval between DNA condensation and anaphase resolution (Figure 4D).

T1 sequence (P35916 25-1363, species assumed): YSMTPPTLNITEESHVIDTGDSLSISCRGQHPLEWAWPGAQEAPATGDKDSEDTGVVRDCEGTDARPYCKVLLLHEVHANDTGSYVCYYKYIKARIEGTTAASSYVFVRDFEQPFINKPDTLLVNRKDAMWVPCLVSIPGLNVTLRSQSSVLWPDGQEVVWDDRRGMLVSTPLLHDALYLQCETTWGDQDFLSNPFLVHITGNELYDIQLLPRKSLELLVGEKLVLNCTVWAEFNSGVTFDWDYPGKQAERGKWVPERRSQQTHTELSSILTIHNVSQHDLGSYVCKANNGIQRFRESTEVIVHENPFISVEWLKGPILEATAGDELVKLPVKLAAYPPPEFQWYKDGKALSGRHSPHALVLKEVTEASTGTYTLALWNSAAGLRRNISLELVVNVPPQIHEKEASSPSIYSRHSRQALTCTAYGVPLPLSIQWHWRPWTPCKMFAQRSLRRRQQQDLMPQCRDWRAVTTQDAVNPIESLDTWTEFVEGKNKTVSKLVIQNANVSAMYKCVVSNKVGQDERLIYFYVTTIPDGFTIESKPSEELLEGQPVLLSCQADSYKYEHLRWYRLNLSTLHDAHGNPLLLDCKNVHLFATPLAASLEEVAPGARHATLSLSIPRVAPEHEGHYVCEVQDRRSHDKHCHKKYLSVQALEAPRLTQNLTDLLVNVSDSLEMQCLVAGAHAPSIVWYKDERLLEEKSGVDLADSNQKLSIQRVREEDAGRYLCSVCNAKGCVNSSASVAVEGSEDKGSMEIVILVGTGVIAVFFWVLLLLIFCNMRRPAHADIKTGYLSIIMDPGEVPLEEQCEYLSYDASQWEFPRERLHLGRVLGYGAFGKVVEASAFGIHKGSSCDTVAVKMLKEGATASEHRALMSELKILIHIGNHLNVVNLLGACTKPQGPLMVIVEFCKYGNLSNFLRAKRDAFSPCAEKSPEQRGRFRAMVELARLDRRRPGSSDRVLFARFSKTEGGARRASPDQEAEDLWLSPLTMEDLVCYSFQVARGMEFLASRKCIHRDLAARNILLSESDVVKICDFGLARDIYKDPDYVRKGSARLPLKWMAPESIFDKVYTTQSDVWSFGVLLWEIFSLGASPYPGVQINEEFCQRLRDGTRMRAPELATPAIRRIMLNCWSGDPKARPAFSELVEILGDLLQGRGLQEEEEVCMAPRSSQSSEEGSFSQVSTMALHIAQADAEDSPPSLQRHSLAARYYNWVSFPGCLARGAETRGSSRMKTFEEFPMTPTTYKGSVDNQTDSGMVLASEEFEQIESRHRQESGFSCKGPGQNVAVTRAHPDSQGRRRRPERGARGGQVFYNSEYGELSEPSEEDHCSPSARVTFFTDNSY
T4 sequence (P00533 25-1210, species assumed): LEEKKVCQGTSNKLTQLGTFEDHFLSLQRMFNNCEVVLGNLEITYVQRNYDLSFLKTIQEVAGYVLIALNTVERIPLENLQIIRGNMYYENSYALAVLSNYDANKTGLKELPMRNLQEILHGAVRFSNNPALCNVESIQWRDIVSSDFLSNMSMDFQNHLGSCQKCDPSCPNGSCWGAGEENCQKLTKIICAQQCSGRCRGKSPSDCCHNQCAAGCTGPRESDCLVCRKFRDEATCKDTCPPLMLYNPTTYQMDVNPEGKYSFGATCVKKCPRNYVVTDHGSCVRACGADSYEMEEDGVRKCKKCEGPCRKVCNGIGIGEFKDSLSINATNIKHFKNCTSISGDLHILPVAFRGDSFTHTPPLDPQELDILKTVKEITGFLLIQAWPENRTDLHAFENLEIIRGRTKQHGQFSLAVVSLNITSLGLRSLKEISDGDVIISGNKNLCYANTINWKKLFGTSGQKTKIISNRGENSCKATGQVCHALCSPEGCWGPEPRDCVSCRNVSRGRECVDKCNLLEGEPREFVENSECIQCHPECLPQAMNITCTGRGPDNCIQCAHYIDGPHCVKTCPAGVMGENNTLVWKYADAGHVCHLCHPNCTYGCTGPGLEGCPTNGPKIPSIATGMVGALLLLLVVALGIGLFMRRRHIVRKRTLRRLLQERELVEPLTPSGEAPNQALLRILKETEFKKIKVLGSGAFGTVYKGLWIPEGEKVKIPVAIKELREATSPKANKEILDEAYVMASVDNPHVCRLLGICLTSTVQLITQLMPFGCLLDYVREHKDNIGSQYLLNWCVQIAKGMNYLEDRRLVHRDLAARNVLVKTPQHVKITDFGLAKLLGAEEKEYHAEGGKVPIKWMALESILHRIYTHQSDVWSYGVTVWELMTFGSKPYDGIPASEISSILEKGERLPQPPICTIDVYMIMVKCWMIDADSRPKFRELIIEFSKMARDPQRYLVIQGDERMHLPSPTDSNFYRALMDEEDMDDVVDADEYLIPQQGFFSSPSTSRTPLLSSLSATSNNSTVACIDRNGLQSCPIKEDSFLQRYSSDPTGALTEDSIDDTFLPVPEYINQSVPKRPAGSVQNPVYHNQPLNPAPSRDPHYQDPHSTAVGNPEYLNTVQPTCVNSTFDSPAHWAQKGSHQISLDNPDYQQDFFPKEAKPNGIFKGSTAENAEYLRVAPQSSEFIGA

As a reminder, the IC50 is the point on the concentration scale where inhibition reaches its midpoint. Turning to `CC(C)Nc1nc(-c2ccco2)nc2ccc(/C=C/C(C)(C)O)cc12` [Compound (A), (E)-4-(2-(Furan-2-yl)-4-(isopropylamino)quinazolin-6-yl)-2-methylbut-3-en-2-ol], the IC50 is 4.24 µM on Flt-4 (VEGFR3), 41.5 µM against IGFR, above 100 µM at Tie2 and above 100 µM against EGFR. Also, the “cell death among non dividing cells / cell viability” value in series [1] is listed as “increased cell death rate; also recorded: massive cell death; also recorded: strong effect on cell viability independent of mitosis”. In addition, the outcome of mitosis in series [1] is recorded as “completed it successfully”.

Turning to `CC(C)Nc1nc(-c2ccco2)nc2ccc(C#CCO)cc12` [Compound (C), 3-(2-(Furan-2-yl)-4-(isoiproipylamino)quinazolin-6-yl)prop-2-yn-l-ol], the 50% inhibitory concentration (IC50) on Flt-4 (VEGFR3), against IGFR, at Tie2 and at EGFR was above 100 µM throughout. Also, the outcome of mitosis in series [1] is “unable to align their chromosomes and died without entering a new interphase; also recorded: died without returning to interphase or right after an asymmetric segregation”. Also, the “time spent in mitosis (TIM), median” value in series [1] was determined as 375 min. Further, the “number of cells entering mitosis” value in series [1] (16 h-24 h) is recorded as “reduced”. In addition, the cells entered mitosis in series [1] (time-lapse video microscopy) is on record as 28.8%.
